According to the NIST ThermoML archive (doi:10.1021/acs.jced.7b01101):

Key:
[1] = wn = mass fraction of the nth substance listed; conditions: 100 kPa, Liquid; for viscosity / mass density: 298.15 K; for viscosity: Concentric cylinders viscometry; for electrical conductivity: 293.15 K, Alternating current cell with electrodes; for mass density: Vibrating tube method
[2] = refractive index (Na D-line) (dimensionless); wn = mass fraction of the nth substance listed; conditions: 293.15 K, 100 kPa, Liquid, Standard Abbe refractometry
[3] = 100 kPa, Liquid; for viscosity: Concentric cylinders viscometry
[4] = refractive index (Na D-line) (dimensionless); conditions: 293.15 K; 100 kPa; Liquid; Standard Abbe refractometry
[5] = refractive index (Na D-line) (dimensionless); an = ratio of the nth substance listed; conditions: 293.15 K, 100 kPa, Liquid, Standard Abbe refractometry
[6] = an = ratio of the nth substance listed; conditions: 100 kPa, Liquid; for electrical conductivity: 293.15 K, Alternating current cell with electrodes; for viscosity / mass density: 298.15 K; for viscosity: Concentric cylinders viscometry; for mass density: Vibrating tube method

O [water] + NCCO
w2 = 0
Conditions | refractive index | viscosity [mPa·s]
[1] | – | 0.89
[2] | 1.333 | –

O [water]
Conditions | viscosity [mPa·s]
[3], 298.15 K | 0.89

Conditions | refractive index
[4] | 1.333

NCCO [2-aminoethan-1-ol] + O
Conditions | electrical conductivity, [1] [S/m] | electrical conductivity, [6] [S/m] | mass density, [1] [kg/m3] | mass density, [6] [kg/m3] | refractive index, [2] | refractive index, [5] | viscosity, [1] [mPa·s] | viscosity, [6] [mPa·s]
a2 = 1.5 | – | 0.046 | – | 1018.3 | – | 1.3854 | – | 3.5
a2 = 2.333 | – | 0.072 | – | 1012.9 | – | 1.372 | – | 2.6
a2 = 4 | – | 0.102 | – | 1007.1 | – | 1.3587 | – | 1.7
w1 = 0.2 | 0.102 | – | 1007.1 | – | 1.3587 | – | 1.7 | –
w1 = 0.3 | 0.072 | – | 1012.9 | – | 1.3718 | – | 2.6 | –
w1 = 0.4 | 0.0461 | – | 1018.3 | – | 1.3852 | – | 3.5 | –
w1 = 0.5 | 0.029 | – | 1022.1 | – | 1.3975 | – | 5.4 | –
w1 = 0.6 | 0.0111 | – | 1025.1 | – | 1.4126 | – | 9.67 | –
w1 = 0.7 | 0.0089 | – | 1026.5 | – | 1.423 | – | 12.26 | –
w1 = 0.8 | 0.0034 | – | 1024.7 | – | 1.4368 | – | 20.39 | –
w1 = 0.9 | 0.0032 | – | 1020.4 | – | 1.4444 | – | 19.45 | –
w1 = 1 | 0.0031 | – | 1012 | – | 1.456 | – | 18.75 | –

NCCO [2-aminoethan-1-ol]
[3]
Conditions | electrical conductivity [S/m] | mass density [kg/m3]
293.15 K, Alternating current cell with electrodes | 0.0031 | –
298.15 K, Vibrating tube method | – | 1012

Conditions | viscosity [mPa·s]
[3], 298.15 K | 18.75

Conditions | refractive index
[4] | 1.456
